Series [1] can be described thus: Intrinsic clearance in mouse liver microsomes. It counts as ADME. Particulars: read-out: CLH.
In series [2] the target is T1, 3-phosphoinositide-dependent protein kinase 1 (Homo sapiens, UniProt O15530).
T1 sequence (O15530 whole entry): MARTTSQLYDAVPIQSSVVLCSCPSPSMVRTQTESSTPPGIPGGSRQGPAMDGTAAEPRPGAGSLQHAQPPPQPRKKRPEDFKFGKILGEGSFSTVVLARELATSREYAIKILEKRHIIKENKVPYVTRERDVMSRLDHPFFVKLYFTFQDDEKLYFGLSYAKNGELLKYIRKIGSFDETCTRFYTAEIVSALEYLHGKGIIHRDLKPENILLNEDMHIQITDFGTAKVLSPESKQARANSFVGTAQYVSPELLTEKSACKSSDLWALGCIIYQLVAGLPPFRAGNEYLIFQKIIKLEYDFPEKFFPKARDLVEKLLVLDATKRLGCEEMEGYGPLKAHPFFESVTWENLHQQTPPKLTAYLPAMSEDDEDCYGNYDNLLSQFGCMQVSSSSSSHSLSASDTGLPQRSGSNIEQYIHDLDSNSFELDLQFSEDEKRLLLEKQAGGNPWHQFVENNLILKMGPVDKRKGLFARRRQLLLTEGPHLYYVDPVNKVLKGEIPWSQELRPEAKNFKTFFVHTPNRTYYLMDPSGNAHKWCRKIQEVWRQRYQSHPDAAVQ
Put plainly: Inhibition of PDK1 in human PC3 cells assessed as reduction in AKT Thr308 phosphorylation after 45 mins. Type of series: cell-based, PC-3.

The nature of series [3]: Efflux ratio of permeability from basolateral to apical over apical to basolateral side in human Caco2 cells. It counts as ADME, cell-based. Particulars: Caco-2.
The nature of series [4]: Permeability across apical to basolateral side in human Caco2 cells. It counts as ADME, cell-based. As to conditions: Caco-2.
The target of series [5] is T1, 3-phosphoinositide-dependent protein kinase 1. The experiment in a line: Inhibition of human His6-tagged PDK1 using biotinylated PDKtide as substrate after 60 mins by topcount method.
Series [6] addresses Phosphatidylinositol 4,5-bisphosphate 3-kinase catalytic subunit gamma isoform (Homo sapiens, UniProt P48736). The experiment in a line: Inhibition of PI3K gamma (unknown origin).
For series [7], the target named is T2, Phosphatidylinositol 4,5-bisphosphate 3-kinase catalytic subunit alpha isoform (Homo sapiens, UniProt P42336). Put plainly: Inhibition of PI3K alpha (unknown origin) at 10 uM.
For series [8], the target named is T3, Phosphatidylinositol 4,5-bisphosphate 3-kinase catalytic subunit delta isoform (Homo sapiens, UniProt O00329).
T3 sequence (O00329 whole entry): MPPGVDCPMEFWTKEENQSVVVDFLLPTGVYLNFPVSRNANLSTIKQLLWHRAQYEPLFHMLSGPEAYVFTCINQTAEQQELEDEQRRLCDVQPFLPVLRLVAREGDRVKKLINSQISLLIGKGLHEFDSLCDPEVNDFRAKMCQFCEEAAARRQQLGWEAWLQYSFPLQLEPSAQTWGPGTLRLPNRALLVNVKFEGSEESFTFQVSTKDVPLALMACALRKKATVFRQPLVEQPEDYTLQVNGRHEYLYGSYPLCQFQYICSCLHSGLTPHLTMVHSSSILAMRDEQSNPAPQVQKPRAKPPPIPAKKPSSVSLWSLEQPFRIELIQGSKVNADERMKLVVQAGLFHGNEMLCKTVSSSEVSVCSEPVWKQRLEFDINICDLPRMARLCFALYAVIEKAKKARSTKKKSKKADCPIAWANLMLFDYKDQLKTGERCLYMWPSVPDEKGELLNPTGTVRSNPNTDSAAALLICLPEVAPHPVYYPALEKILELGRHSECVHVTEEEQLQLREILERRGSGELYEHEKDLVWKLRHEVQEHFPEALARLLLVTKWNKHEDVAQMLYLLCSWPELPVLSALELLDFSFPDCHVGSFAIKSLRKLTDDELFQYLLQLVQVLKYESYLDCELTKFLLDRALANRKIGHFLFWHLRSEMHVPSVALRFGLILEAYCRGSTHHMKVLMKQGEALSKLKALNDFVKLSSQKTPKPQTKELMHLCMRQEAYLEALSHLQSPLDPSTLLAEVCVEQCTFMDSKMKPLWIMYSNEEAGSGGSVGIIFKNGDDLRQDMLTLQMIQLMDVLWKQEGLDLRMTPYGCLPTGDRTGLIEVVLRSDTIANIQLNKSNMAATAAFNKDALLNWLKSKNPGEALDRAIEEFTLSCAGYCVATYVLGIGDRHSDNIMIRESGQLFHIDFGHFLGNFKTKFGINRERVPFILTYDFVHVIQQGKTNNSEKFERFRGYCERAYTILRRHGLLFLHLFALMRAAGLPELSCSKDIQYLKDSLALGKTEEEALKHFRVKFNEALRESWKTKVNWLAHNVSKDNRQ
Put plainly: Inhibition of PI3K delta (unknown origin).

Series [9] in a line: Intrinsic clearance in human liver microsomes. Type of series: ADME. Particulars: read-out: CLH.
Series [10] is described as follows: Solubility of the compound. It counts as physicochemical.
The target of series [11] is T2, Phosphatidylinositol 4,5-bisphosphate 3-kinase catalytic subunit alpha isoform. The experiment in a line: Inhibition of PI3K alpha (unknown origin).
Series [12] addresses Phosphatidylinositol 4,5-bisphosphate 3-kinase catalytic subunit beta isoform (Homo sapiens, UniProt P42338). Put plainly: Inhibition of PI3K beta (unknown origin).
A further series is filed under the species Homo sapiens. The experiment in a line: Selectivity ratio of IC50 for PI3K alpha (unknown origin) to IC50 for human His6-tagged PDK1.
In series [13] the target is T1, 3-phosphoinositide-dependent protein kinase 1. The experiment in a line: Inhibition of human PDK1.

The structures appear in SMILES notation. In brackets after ≈: the same amount, converted by molar mass. Some results are limits rather than exact numbers.

T2 sequence (P42336 whole entry, canonical isoform): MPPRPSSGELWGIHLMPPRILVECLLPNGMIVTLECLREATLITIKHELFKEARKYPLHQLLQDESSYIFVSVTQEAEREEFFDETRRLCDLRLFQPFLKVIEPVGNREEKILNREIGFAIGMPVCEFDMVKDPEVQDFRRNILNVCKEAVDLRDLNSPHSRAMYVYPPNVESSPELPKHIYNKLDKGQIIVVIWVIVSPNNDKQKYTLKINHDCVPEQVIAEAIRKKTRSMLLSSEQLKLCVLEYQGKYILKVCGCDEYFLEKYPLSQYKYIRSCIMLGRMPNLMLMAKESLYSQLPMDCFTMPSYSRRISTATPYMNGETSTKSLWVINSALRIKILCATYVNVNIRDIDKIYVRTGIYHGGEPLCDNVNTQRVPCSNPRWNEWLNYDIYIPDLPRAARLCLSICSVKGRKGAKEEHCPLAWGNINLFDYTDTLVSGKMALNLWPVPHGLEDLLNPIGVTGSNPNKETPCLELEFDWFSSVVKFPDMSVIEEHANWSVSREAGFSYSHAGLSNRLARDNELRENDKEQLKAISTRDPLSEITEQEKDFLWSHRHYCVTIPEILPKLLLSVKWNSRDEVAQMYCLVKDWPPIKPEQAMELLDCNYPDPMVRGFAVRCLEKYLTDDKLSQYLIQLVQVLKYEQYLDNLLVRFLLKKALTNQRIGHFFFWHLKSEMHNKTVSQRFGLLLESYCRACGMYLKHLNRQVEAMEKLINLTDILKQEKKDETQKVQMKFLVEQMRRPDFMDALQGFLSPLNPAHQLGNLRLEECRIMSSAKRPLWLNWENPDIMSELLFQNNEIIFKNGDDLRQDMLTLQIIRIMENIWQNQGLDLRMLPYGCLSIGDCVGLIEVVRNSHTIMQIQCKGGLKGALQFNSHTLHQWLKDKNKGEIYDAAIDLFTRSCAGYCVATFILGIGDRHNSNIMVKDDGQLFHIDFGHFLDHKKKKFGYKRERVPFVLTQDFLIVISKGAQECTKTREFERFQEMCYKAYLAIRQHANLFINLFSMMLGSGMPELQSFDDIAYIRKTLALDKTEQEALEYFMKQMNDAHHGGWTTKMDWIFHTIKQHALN
Sequence of Phosphatidylinositol 4,5-bisphosphate 3-kinase catalytic subunit beta isoform (P42338 whole entry, canonical isoform): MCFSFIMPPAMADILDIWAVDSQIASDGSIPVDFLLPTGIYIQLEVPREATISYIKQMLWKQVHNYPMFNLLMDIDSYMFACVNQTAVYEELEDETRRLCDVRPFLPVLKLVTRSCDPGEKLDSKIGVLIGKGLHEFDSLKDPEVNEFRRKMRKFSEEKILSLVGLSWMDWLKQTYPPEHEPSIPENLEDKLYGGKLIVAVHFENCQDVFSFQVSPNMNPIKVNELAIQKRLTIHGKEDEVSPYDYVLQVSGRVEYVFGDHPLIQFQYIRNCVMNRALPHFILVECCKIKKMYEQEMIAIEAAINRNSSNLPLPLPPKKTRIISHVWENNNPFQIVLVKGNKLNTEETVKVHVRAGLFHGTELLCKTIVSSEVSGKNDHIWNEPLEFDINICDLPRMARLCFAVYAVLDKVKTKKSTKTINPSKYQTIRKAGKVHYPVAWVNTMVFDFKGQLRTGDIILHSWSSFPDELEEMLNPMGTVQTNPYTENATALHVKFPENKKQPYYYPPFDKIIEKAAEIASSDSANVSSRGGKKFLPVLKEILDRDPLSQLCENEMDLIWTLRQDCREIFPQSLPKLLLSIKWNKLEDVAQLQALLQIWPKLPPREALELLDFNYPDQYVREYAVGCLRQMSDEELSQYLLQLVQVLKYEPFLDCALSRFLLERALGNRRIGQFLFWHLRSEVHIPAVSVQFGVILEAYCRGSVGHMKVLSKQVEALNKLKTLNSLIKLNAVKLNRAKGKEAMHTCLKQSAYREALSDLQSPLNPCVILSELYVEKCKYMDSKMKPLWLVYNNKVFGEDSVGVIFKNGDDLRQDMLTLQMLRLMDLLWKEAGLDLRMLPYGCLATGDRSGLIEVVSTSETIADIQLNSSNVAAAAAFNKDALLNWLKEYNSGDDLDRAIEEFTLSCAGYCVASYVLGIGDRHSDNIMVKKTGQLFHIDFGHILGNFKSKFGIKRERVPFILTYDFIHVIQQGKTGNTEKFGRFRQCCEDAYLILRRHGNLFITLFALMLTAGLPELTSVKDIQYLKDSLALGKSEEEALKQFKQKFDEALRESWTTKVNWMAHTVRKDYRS
Sequence of Phosphatidylinositol 4,5-bisphosphate 3-kinase catalytic subunit gamma isoform (P48736 whole entry, canonical isoform): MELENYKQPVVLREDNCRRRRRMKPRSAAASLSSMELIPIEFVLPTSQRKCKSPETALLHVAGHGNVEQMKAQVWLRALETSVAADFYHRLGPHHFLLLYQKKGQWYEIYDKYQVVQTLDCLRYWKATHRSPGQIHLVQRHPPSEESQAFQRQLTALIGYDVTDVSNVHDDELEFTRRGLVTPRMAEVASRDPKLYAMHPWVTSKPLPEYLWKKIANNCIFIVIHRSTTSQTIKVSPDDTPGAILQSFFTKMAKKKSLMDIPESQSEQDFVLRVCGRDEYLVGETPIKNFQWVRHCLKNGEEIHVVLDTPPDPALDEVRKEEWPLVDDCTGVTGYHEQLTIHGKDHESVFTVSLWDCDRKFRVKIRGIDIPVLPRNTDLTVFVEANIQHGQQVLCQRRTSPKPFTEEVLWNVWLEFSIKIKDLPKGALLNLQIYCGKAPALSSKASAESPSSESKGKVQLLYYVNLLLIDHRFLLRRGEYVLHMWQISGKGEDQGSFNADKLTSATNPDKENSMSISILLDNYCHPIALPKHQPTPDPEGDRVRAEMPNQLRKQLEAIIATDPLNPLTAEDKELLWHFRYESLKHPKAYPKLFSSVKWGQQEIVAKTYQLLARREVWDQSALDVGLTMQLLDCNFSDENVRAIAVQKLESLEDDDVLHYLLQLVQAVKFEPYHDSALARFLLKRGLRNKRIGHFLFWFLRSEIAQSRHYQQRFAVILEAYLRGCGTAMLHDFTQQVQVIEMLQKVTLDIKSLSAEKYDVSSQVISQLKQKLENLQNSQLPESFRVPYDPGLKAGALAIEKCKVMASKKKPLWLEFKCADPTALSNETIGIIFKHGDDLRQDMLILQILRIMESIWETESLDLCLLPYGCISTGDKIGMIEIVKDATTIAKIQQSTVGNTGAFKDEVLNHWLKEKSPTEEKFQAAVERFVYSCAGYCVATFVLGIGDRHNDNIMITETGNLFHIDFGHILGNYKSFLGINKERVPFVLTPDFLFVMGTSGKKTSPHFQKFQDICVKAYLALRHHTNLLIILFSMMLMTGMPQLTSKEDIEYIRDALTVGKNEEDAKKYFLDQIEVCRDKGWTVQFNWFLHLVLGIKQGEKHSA

In the case of `CCc1cc(-c2c[nH]c3ncc(-c4cnn(C)c4)cc23)nc(N)n1`, the microsomal CLint in series [1] was 71 µL/min/mg; in series [9] it was more than 55 µL/min/mg. In addition, the IC50 was 11 µM in series [2], 0.085 µM in series [5], more than 10 µM in series [6] and more than 10 µM in series [8]. Moreover, in [3], the Ratio turned out to be 7.9. The Papp A→B in series [4] is 5.4 ×10⁻⁶ cm/s. The compound further registered an inhibition in series [7] of 78%.
`Cc1nccc(-c2c[nH]c3ncccc23)n1` came in with an IC50 in series [5] of more than 10 µM.
For the compound `NCCCc1cc(-c2c[nH]c3ncccc23)nc(N)n1`, the solubility in series [10] was found to be 12 µg/mL (≈ 44.7 µM). Besides, the IC50 was more than 30 µM in series [2] and 0.39 µM in [5].
On to `CCc1cc(-c2c[nH]c3ncccc23)ncn1`, for which the IC50 was more than 30 µM in series [2] and more than 10 µM in [5].
Take `CCc1cc(-c2c[nH]c3ncccc23)nc(N)n1`: the half-inhibitory concentration (IC50) in series [2] is more than 30 µM; in [5], 1.2 µM.
Regarding `COc1ccc2[nH]c(-c3cc[nH]n3)nc2c1`, the IC50 in [5] was 93 µM.
Turning to `CCc1cc(-c2c[nH]c3nccc(Cl)c23)nc(N)n1`, the IC50 in series [5] is more than 10 µM.
For the compound `CCc1cc(-c2c[nH]c3ncc(-c4cnn(CC(C)C)c4)cc23)nc(N)n1`, the IC50 in series [11] was 4.7 µM; in series [12], more than 30 µM; in series [2] it was 9.6 µM; in [5], 0.11 µM; in series [6] it was more than 10 µM; in series [8], more than 10 µM. Besides, the microsomal CLint is 67 µL/min/mg in series [1] and more than 55 µL/min/mg in series [9]. The Ratio in [3] is on record as 0.6. Besides, the apparent permeability from apical to basolateral (Papp A→B) in series [4] was determined as 27 ×10⁻⁶ cm/s. The Ratio IC50 in the series filed under Homo sapiens was 42.
Take `CCc1cc(-c2c[nH]c3ncc(-c4ccco4)cc23)nc(N)n1`: the IC50 is more than 10 µM in [11]; 28 µM in series [2]; 0.12 µM in series [5]; more than 10 µM in series [6]; more than 10 µM in [8].
`Nc1nc2c3ccccc3nc(-c3ccccc3)n2n1` yielded an IC50 in [5] of 60 µM.
Consider `CCc1cc(-c2c[nH]c3ncc(-c4cnn(CCN(C)C)c4)cc23)nc(N)n1`, for which the IC50 in [11] is 3.9 µM; in series [12], more than 30 µM; in series [2] it was 14 µM; in series [5] it was 0.082 µM; in series [6] it was more than 10 µM; in [8], more than 10 µM. Besides, the microsomal CLint in series [1] was 39 µL/min/mg; in [9], less than 10 µL/min/mg. Further, in series [3], the Ratio was found to be 2.3. The same compound returned an apical-to-basolateral permeability (Papp A→B) in series [4] of 7.3 ×10⁻⁶ cm/s. For the same compound, the Ratio IC50 in the series filed under Homo sapiens was 48.
For `Nc1nccc(-c2c[nH]c3cccc(O)c23)n1` [MERIDIANIN A], the concentration for half-maximal inhibition (IC50) in series [13] came to 5.4 µM.
Regarding `CCc1cc(-c2c[nH]c3ncc(Br)cc23)nc(N)n1`, the concentration for half-maximal inhibition (IC50) in [2] is more than 30 µM; in [5] it was 0.48 µM.
`CCCc1cc(-c2c[nH]c3ncccc23)nc(N)n1`: the values for the half-inhibitory concentration (IC50) in series [2] and in [5] were more than 30 µM and 1.8 µM, respectively.
As to `CCc1cc(-c2c(C)[nH]c3ncccc23)nc(N)n1`, the concentration for half-maximal inhibition (IC50) in series [5] is more than 10 µM.
For `CCc1cc(-c2c[nH]c3ncc(-c4ccn[nH]4)cc23)nc(N)n1`, the IC50 in series [11] is more than 10 µM; in [12], more than 30 µM; in series [2], 26 µM; in [5] it was 0.26 µM; in [6], more than 10 µM; in series [8] it was more than 10 µM.
`CCc1cc(-c2c[nH]c3ncc(-c4ccc(N)nc4)cc23)nc(N)n1`: the concentration for half-maximal inhibition (IC50) was more than 10 µM in series [11]; more than 30 µM in series [12]; 21 µM in series [2]; 0.17 µM in series [5]; more than 10 µM in series [6]; more than 10 µM in [8].
As to `Nc1nccc(-c2c[nH]c3ccc(Br)cc23)n1` [MERIDIANIN C], the midpoint of inhibition in series [5], the IC50, lay at 12 µM.
As for `Nc1ncc(Br)c(-c2c[nH]c3ncccc23)n1`, the half-inhibitory concentration (IC50) in [5] was more than 10 µM.
Regarding `CCc1cc(-c2c[nH]c3ncc(-c4ccncc4)cc23)nc(N)n1`, the IC50 in series [2] is more than 30 µM; in series [5], 0.45 µM.
In turn, `Nc1ncc(-c2ccccc2)cc1-c1nc2ccccc2[nH]1` showed a half-maximal inhibitory concentration (IC50) in [5] of 1.1 µM.
Take `CCc1cc(-c2c[nH]c3ncc(-c4cccnc4)cc23)nc(N)n1`: the IC50 in [2] is more than 30 µM; in series [5], 0.5 µM.
The like results for `CCc1cc(-c2c[nH]c3ncc(-c4c(C)nn(C)c4C)cc23)nc(N)n1` were, in that order, more than 30 µM and 2.7 µM.
As for `CCc1cc(-c2c[nH]c3ncc(-c4cn[nH]c4)cc23)nc(N)n1`, the IC50 in series [11] was 6 µM; in series [12] it was more than 30 µM; in series [2], 5.4 µM; in [5], 0.013 µM; in [6], 7 µM; in [8], more than 30 µM. The results for the microsomal CLint in series [1] and in [9] were more than 70 µL/min/mg and 52 µL/min/mg, respectively. In series [3], the Ratio is given as 54.8. In addition, the Papp A→B in [4] was determined as 0.89 ×10⁻⁶ cm/s. In the series filed under Homo sapiens, the Ratio IC50 amounted to 460.
As for `CCc1cc(-c2c[nH]c3ncc(-c4ccccc4)cc23)nc(N)n1`, the 50% inhibitory concentration (IC50) in [2] was more than 30 µM; in series [5], 3.5 µM.
The corresponding values for `CCCCCc1cc(-c2c[nH]c3ncccc23)nc(N)n1` are more than 30 µM and 2.2 µM.
As for `CNc1nccc(-c2cn(CCOC)c3ncccc23)n1`, the IC50 in [5] is more than 10 µM.
For the compound `CCc1cc(-c2c[nH]c3ncc(-c4ccnn4C)cc23)nc(N)n1`, the IC50 is more than 30 µM in series [2] and 2.4 µM in [5].
In series [5], `Oc1ccc(-c2n[nH]c3cc(O)ccc23)cc1` returned an IC50 of 6.7 µM.
For the compound `NCCCCc1cc(-c2c[nH]c3ncccc23)nc(N)n1`, the IC50 in [2] is more than 30 µM; in series [5] it was 1 µM.

Values taken from ChEMBL document CHEMBL3813616, “Discovery of novel 7-azaindoles as PDK1 inhibitors” (Bioorg Med Chem Lett, 2016).
